The nature of data set [1]: In vivo metabolism of CBN in female mice, plasma levels by targeted LC/MS/MS. Also on record: species or system C57BL/6 mice. As for the experimental part:
Initially dissolved in ethanol, CBN was combined with a volume of Tween 80, constituting 6% of the total solution volume for injection. Ethanol was eliminated via vacuum evaporation, and saline was added to prepare a 4 mg/mL solution. CBN (20 mg/kg) or vehicle was administered to C57BL/6 mice intravenously (IV) through the retro-orbital sinus or intraperitoneally (IP) at the lower right quadrant of the abdomen. Animals were euthanized at 30- or 120 min postinjection. Blood samples, collected via cardiac puncture into heparin tubes, underwent cold centrifugation at 4500 rpm for 15 min to isolate plasma. Plasma and whole liver samples were flash-frozen at −80 °C for subsequent analysis. Our decision to use female mice for this experiment was based on the availability of age-matched mice in the colony at the time of the experiment.
Mice were anaesthetized with a 3% inhalant dose of isoflurane until their respiratory rate decreased to 50% of baseline (i.e., 40–60 breaths/min) and the righting reflex was abolished. Mice were subsequently removed from the induction chamber and laid on their side. Using the index finger and thumb of the nondominant hand, the skin above and below the eye was retracted until a slight protrusion from the socket was noted. A 29G1/2 needle was inserted, bevel down, into the medial canthus at an approximate 45-degree angle until slight resistance was noted. Volume was slowly infused at a rate of 15uL/second. The needle was subsequently removed from the eye socket, and ophthalmic ointment was added.
Animals were gently restrained by scruff, and the injection site at the lower right quadrant of the abdomen was identified. The needle was inserted at a 60-degree angle to the body, and the plunger was lightly withdrawn to ensure the needle was not in contact with viscera or organs before dispensing volume.
200 μL plasma samples were collected and used for extraction using 1 mL of Hexane: Ethyl acetate (8:2 v/v) following a similar protocol described above.
Samples were analyzed using the Sciex QTrap 6500+ system (Framingham, MA) with Waters Acquity I- class plus UPLC. Software Analyst 1.7.1 was used for data acquisition.
The LC separation was performed on a Waters Acquity UPLC BEH column (2.1 × 100 mm, 1.7 μm) with mobile phase A (0.1% formic acid in water) and mobile phase B (0.1% formic acid in acetonitrile). The flow rate was 0.5 mL/min unless noted otherwise. The linear gradient was as follows: 0–0.5 min, 70%A; 2 min, 20%A; 4–4.2 min, 0%A; 4.21–5.2 min, 0%A (0.8 mL/min); 5.3–6.9 min, 70%A. The autosampler was set at 10 °C, and the column was kept at 50 °C. The injection volume was 5 μL.
Mass spectra were acquired under positive electrospray ionization (ESI) with the ion spray voltage of 4500 V. The source temperature was 500 °C. The curtain gas, ion source gas 1, and ion source gas 2 were 32, 50, and 70 psi, respectively. Multiple reaction monitoring (MRM) was used for quantitation with the MRM transition of CBN (m/z 311.2 → m/z 269.1), CBN-1′–OH (m/z 327.2 → m/z 253.1), CBN-11-OH (m/z 327.2 → m/z 128.1), CBN-p-quinone (m/z 325.2 → m/z 283.1) and EPEA-d4 as internal standard (m/z 350.3 → m/z 66.1).

Another data set has as its system human liver microsomes. The experiment in a line: CBN metabolism by human liver microsomes, metabolite formation rate. It counts as in vitro ADME. Particulars: HLM, across different CBN concentrations. Here is the method:
We carried out concentration-dependent metabolism of CBN in the presence of 2 CYPs: 2C9 and 2D6. For the experiment, we used an enzyme concentration of 0.5 μM, reconstituted in the lipid system of POPC: POPS (8:2 v/v), and CPR at 0.6 μM dissolved in 0.1 M potassium phosphate buffer for CYP2C9. The substrate CBN was used in a range of 5–80 μM. The reaction mixture was incubated at 37 °C for 10 min, and then NADPH was added (1 mM), allowing the reaction to proceed for an additional 30 min. We quenched the reactions using a mixture of Hexane: Ethyl Acetate (8:2 v/v) and used the same composition to extract the CBN metabolites. We did a total extraction for three cycles. Following the extractions, the extractions were dried under a continuous stream of nitrogen, and the residual products were finally dissolved in 90% ethanol. We used CYP2D6 in a nanodisc for the metabolism of CBN. […] We carried out the same protocol for the metabolism of CBN using 1 μg of human liver microsome, CPR (0.6 μM) and NADPH (1 mM).
Samples were analyzed with the Sciex QTrap 6500+ system (Framingham, MA) with Waters Acquity I-class plus UPLC. Software Analyst 1.7.1 was used for data acquisition.
The LC separation was performed on a Waters Acquity UPLC BEH column (2.1 × 100 mm, […]) with mobile phase A (0.1% formic acid in water) and mobile phase B (0.1% formic acid in acetonitrile). The flow rate was 0.5 mL/min unless noted otherwise. […]
(§1) Mass spectra were acquired under positive electrospray ionization (ESI) with the ion spray voltage of 4500 V. The source temperature was 500 °C. […] Multiple reaction monitoring (MRM) was used for quantitation, as described in transitions CBN (m/z 311.2 → m/z 205.1), CBN-1′–OH (m/z 327.2 → m/z 253.1), CBN-11-OH (m/z 327.2 → m/z 291.1), CBN-p-quinone (m/z 325.2 → m/z 283.1) and CBC-d9 as internal standard (m/z 324.2→ m/z 202.1).
(§2) All data were analyzed using the software Skyline (daily version 22.2.1.278). […]

A further data set has as its target T1, CYP2D6 (Homo sapiens, UniProt P10635).
T1 construct: polyhistidine (inferred from Ni-NTA purification and histidine elution); made in house; host or cells: E. coli (inferred from the pCWori vector and lysozyme/spheroplast preparation)
The experiment in a line: CYP2D6 (nanodisc)-mediated CBN metabolism, kinetics of metabolite formation. It is filed as in vitro ADME. As for the experimental part:
We carried out concentration-dependent metabolism of CBN in the presence of 2 CYPs: 2C9 and 2D6. For the experiment, we used an enzyme concentration of 0.5 μM, reconstituted in the lipid system of POPC: POPS (8:2 v/v), and CPR at 0.6 μM dissolved in 0.1 M potassium phosphate buffer for CYP2C9. The substrate CBN was used in a range of 5–80 μM. The reaction mixture was incubated at 37 °C for 10 min, and then NADPH was added (1 mM), allowing the reaction to proceed for an additional 30 min. We quenched the reactions using a mixture of Hexane: Ethyl Acetate (8:2 v/v) and used the same composition to extract the CBN metabolites. We did a total extraction for three cycles. […]
Samples were analyzed with the Sciex QTrap 6500+ system (Framingham, MA) with Waters Acquity I-class plus UPLC. […]
as §1, §2

A further data set has as its system NO. In words: NO levels in LPS-stimulated BV2 microglial cells. It counts as cell-based. Particulars: for change in NO levels compared to cells with only LPS treatment: LPS-stimulated BV2, 1, 2.5 and 5 μM. As for the experimental part:
(§3) The BV2 microglial cells were subjected to the treatment of LPS both in the absence and presence of CBN and its selected metabolites. The seeding density for this assay was 1 × 10^5 cells/well. The cells were initially treated with the molecules for 4 h before being stimulated with LPS (25 ng/mL). The NO assay was performed 24 h after the treatment with LPS. The NO assay was performed according to the manufacturer’s protocol, and NO levels were quantified using nitrate standard curves. For the assay, 50 μL of cell media was used in a 96-well plate, and the absorbance was recorded at 540 nm. All measurements were performed in n = 5.

A further data set has as its system IL-6. The experiment in a line: IL-6 ELISA in LPS-stimulated BV2 microglial cells. It is filed as cell-based. Here is the method:
as §3
(§4) ELISA assays of IL-6, IL-10 (Item No. 88–7105), and Arginase 1 were performed using the same supernatant with which we had completed the NO and LDH assays. The culture media was collected, and the IL-6 (Thermo Scientific) and Arginase 1 (abcam) assays were performed using the specific monoclonal antibodies as per the manufacturer’s instructions.

For another data set, the system named is IL-10. In words: IL-10 ELISA in LPS-stimulated BV2 microglial cells. It counts as cell-based. The note with it: LPS-stimulated BV2, 1–5 μM. As for the experimental part:
as §3, §4

A further data set deals with Arginase 1. In words: Arginase 1 ELISA in LPS-stimulated BV2 microglial cells. It is filed as cell-based. Here is the method: as §3, §4
The target in data set [2] is T2, CB1 receptor (Homo sapiens, UniProt P21554). In words: G protein nanoBRET assay, agonist mode, CB1 receptor. The note with it: 10 μM, ΔBRET; confirmed by concentration–response, only at high concentrations.
A further data set concerns the target CB2 receptor (Homo sapiens, UniProt P34972). The experiment in a line: G protein nanoBRET assay, antagonist mode, CB2 receptor. The note with it: 50 μM after pretreatment with 1 μM CP-55940.
The next data set deals with DRG neurons. The experiment in a line: Calcium responses of cultured DRG sensory neurons. It counts as cell-based. The note with it: cultured mouse DRG neurons, 50 μM × 15 s. As for the experimental part: 9 CBN and 11-OH CBN activate DRG neurons with similar response magnitudes but differ in their percentage of neurons activated and time to peak response. Calcium response traces of representative cultured mouse DRG neurons following application of CBN (A) and 11-OH CBN (B) 50 μM × 15 s (arrow). […] Mean value ± SEM (CBN: n = 59; 11-OH CBN: n = 29, two-tailed t test, Prism GraphPad).

Another data set addresses CB1 receptors. Set-up: method as in ref 10 (Rhee et al., citation mark lost in text). Particulars: COS-7 cell lines; ref 10 (Rhee et al.); cited from earlier work.
The target of another data set is CB2 receptors. Also on record: method as in ref 10 (Rhee et al., citation mark lost in text). Particulars: COS-7 cell lines; ref 10 (Rhee et al.); cited from earlier work.
The subject of another data set is TRPV4. Set-up: method as in ref 11 (De Petrocellis et al., citation mark lost in text). Particulars: ref 11 (De Petrocellis et al.); cited from earlier work.
Another data set concerns TRP channel. Set-up: method as in ref 11 (De Petrocellis et al., citation mark lost in text). The note with it: stimulation by 1 mM carvacrol; ref 11 (De Petrocellis et al.); read-out: IC50, prevention of intracellular calcium increase upon carvacrol; cited from earlier work.
Data set [3] deals with T3, CYP3A4 (Homo sapiens, UniProt P08684, S18F). The experiment in a line: NADPH oxidation assay with CYP3A4 nanodisc and CPR. Particulars: triplicate.
Data set [4] deals with T2, CB1 receptor. The experiment in a line: G protein nanoBRET assay, antagonist mode, CB1 receptor. Particulars: 50 μM after pretreatment with 1 μM CP-55940.
Data set [5] addresses T3, CYP3A4. In words: CYP3A4-mediated CBN metabolism. It counts as in vitro ADME. Also on record: polyhistidine (C); made in house; host or cells: E. coli DH5alpha. The note with it: targeted and untargeted metabolomics.

T2 sequence (P21554 whole entry): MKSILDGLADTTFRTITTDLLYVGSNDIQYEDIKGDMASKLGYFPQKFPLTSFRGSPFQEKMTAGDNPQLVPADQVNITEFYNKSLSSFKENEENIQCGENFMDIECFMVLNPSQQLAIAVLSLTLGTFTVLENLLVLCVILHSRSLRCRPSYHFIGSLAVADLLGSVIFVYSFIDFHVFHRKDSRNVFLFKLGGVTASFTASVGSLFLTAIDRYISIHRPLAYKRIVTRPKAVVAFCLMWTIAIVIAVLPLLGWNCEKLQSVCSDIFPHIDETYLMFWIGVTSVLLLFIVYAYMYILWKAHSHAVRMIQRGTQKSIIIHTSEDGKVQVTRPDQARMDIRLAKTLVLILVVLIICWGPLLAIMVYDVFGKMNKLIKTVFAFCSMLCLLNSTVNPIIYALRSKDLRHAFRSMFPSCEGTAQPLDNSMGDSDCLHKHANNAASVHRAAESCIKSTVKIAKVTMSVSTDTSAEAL
Chain of CB2 receptor (P34972 whole entry): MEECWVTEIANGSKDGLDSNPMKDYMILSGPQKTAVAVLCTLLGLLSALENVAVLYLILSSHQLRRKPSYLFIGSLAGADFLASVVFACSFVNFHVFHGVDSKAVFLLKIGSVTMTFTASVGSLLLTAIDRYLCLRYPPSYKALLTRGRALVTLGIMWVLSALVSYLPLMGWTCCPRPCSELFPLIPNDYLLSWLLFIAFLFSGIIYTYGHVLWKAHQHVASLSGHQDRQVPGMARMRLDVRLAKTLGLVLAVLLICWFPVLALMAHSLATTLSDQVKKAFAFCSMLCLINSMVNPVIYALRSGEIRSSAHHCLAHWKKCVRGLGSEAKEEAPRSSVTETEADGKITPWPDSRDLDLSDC
T3 sequence (P08684 with tags, fused parts or gaps S18F limits assumed): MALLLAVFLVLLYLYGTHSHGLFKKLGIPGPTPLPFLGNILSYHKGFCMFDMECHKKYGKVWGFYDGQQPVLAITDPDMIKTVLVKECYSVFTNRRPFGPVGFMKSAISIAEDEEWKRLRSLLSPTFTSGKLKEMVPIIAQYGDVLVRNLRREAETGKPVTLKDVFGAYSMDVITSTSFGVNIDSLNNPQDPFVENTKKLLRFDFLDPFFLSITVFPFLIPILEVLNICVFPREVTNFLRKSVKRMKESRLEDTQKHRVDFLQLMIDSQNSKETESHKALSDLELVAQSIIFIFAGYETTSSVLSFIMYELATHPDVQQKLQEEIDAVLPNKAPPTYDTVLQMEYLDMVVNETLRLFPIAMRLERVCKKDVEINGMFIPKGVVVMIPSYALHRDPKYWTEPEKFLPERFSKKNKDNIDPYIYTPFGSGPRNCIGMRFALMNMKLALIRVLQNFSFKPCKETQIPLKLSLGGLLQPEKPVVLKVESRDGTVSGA
T1 sequence (P10635 with tags, fused parts or gaps limits assumed): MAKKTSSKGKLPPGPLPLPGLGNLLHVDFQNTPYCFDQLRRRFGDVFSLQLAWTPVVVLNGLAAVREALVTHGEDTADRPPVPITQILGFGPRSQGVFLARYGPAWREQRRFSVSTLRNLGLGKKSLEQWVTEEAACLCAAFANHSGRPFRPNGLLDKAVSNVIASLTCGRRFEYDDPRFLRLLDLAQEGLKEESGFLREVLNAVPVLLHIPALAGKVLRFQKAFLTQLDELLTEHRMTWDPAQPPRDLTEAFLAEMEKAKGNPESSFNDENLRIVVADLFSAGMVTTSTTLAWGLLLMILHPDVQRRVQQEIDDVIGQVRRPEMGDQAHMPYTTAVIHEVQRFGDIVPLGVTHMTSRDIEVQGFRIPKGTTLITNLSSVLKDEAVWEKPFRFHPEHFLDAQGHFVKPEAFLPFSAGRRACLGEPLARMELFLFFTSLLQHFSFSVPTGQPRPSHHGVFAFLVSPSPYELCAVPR

Turning to `CCCC[C@H](O)c1cc(O)c2c(c1)OC(C)(C)c1ccc(C)cc1-2` [CBN-1′–OH, 3-(1-hydroxypentyl)-6,6,9-trimethyl-6H-benzo[c]chromen-1-ol], the “reduction of plasma level between 0.5 and 2 h” value (from here on “reduction”) in data set [1] (IV administration of CBN) is recorded as 3 fold. In the data set with human liver microsomes, the “rate of metabolite formation from CBN” value is listed as 9–9.4 × 10^3 pmol/min/nmol. For the same compound, the “formation of metabolite by CYP2D6” value on CYP2D6 was “did not detect the formation”. Also, the “change in NO levels compared to cells with only LPS treatment” value in the data set on NO was “no detectable significant (ns) change”. Also, the IL-6 production entry in the data set with IL-6 (LPS-stimulated BV2, concentration not stated) was “decrease in IL-6 production”. Moreover, the IL-10 levels result with IL-10 is reported as “reversed”. Moreover, the Arginase1 levels entry in the data set on Arginase 1 is “slight increase in Arginase1 levels”. In addition, at CB1 receptor [2], the “agonist effect at CB1 receptor, Gαo activation” value is “partial agonist effect”. The “inhibition of CB2 receptor” value on CB2 receptor is recorded as “inverse agonist effect”.

Take `CCCCCc1cc(O)c2c(c1)OC(C)(C)c1ccc(C)cc1-2` [CBN, Cannabinol]: the “reduction” value in [1] (IP administration of CBN) is given as 3 fold. Besides, the “reduction” value in data set [1] (IV administration of CBN) is recorded as approximately 3 fold. Further, in data set [1] (female mice, CBN 20 mg/kg, plasma), the “amount of CBN available in plasma, intravenous relative to intraperitoneal” value is 3.0 times. In the data set with NO (LPS-stimulated BV2, 5 μM), the “production of NO” value is given as “slightly lower production of NO”. Further, the “change in NO levels compared to cells with only LPS treatment” value with NO is on record as “no detectable significant (ns) change”. Besides, in the data set with IL-6 (LPS-stimulated BV2, 5 μM), the IL-6 levels entry was “reduction in IL-6 levels”. In addition, the IL-10 levels result in the data set with IL-10 is given as “concentration-dependent increase in IL-10 levels”. The Arginase1 levels result in the data set on Arginase 1 is “slight increase in Arginase1 levels”. For the same compound, in the data set with DRG neurons, the “Ca2+ response (%)” value is reported as 38.9 ± 4.3%, the “DRG neuron activation (%)” value was 29.3 ± 4.9%, the “Response Time” value was 40.7 ± 4.8 s and the “percentage of DRG neurons activated” value is 29.3 ± 4.9%. Moreover, the “time to peak response” value in the data set on DRG neurons turned out to be 40.7 ± 4.8 s. The Ki on CB1 receptors is 211 ± 35 nM. For the same compound, the Ki at CB2 receptors is 126 ± 26 nM. In addition, in the data set with TRPV4, the “efficacy in activating TRPV4 compared to ionomycin” value was 15.3–26.1%. The IC50 in the data set on TRP channel was 9400 ± 100 nM. In addition, the “rate of NADPH oxidation in the presence of the compound” value at CYP3A4 [3] was determined as 249.731±14625 nmol/min/nmol. For the same compound, the “inhibition of CB1 activation” value at CB1 receptor [4] was “significant but partial inhibition”. In addition, the “inhibition of CB2 receptor” value on CB2 receptor is listed as “partial inhibition”. For the same compound, the “metabolism of CBN by CYP3A4” value at CYP3A4 [5] was “did not metabolize”.

Source of the values: publication PMC12257535, “Distinct Interactions of Cannabinol and Its Cytochrome P450-Generated Metabolites with Receptors and Sensory Neurons” (Journal of Medicinal Chemistry, 2025).
